Measured values reported in PubChem BioAssay AID1963985 (Molecular Pharmacology Branch, DTP, NCI, 2024).
“And” between values parts separate entries of the source, which are not always exact repeats. Equal values may be shown once.

Test system: 252836-082-R-J2-PDC tumor spheroids, viability
Test: Anticancer human tumor 252836-082-R-J2-PDC patient-derived head and neck squamous cell carcinoma cell line growth inhibition [PI3K]
Conditions: spheroids with HUVEC and MSC; for viability, T/C: stronger effect = lower value; active = viability on the fitted dose curve at most 10% of control; inactive = the rest
How it was run: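 Tumor cells grown as multi-cell spheroids with HUVEC endothelial cells and MSC fibroblast-like stroma were treated with targeted agents combined with inavolisib, alpelisib, duvelisib or copanlisib. Doses fell in half-log steps from near clinical Cmax, else from 10 microM. Viability was measured.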

[1] = curve of first compound, second compound 0.0316 µM
[2] = curve of first compound, second compound 0.1 µM
[3] = curve of first compound, second compound 0.316 µM
[4] = curve of first compound, second compound 1 µM
[5] = second compound 0.0316 µM, first compound 0.0316 µM
[6] = second compound 0.0316 µM, first compound 0.1 µM
[7] = second compound 0.1 µM, first compound 0.0316 µM
[8] = second compound 0.1 µM, first compound 0.1 µM
[9] = second compound 0.316 µM, first compound 0.0316 µM
[10] = second compound 0.316 µM, first compound 0.1 µM
[11] = second compound 1 µM, first compound 0.0316 µM
[12] = second compound 1 µM, first compound 0.1 µM
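Also: spheroids exposed to agents for seven days before readout.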
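For viability, T/C in this document: percent of vehicle DMSO control viability so 100% = untreated growth.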

Cn1ncnc1[C@H]1c2n[nH]c(=O)c3cc(F)cc(c23)N[C@@H]1c1ccc(F)cc1 + Cc1nc(NC(=O)N2CCCC2C(N)=O)sc1-c1ccnc(C(C)(C)C(F)(F)F)c1
0.0172 µM: IC50 [4]
inactive: viability, T/C (second compound 0.0316 µM, first compound 0.000316 µM) 88.5% | viability, T/C (second compound 0.0316 µM, first compound 0.001 µM) 94.1% | viability, T/C (second compound 0.0316 µM, first compound 0.00316 µM) 96.9% | viability, T/C (second compound 0.0316 µM, first compound 0.01 µM) 76.2% | viability, T/C [5] 75.2% | viability, T/C [6] 58.5% | viability, T/C (second compound 0.1 µM, first compound 0.000316 µM) 80.2% | viability, T/C (second compound 0.1 µM, first compound 0.001 µM) 71.3% | viability, T/C (second compound 0.1 µM, first compound 0.00316 µM) 83.4% | viability, T/C (second compound 0.1 µM, first compound 0.01 µM) 65.6% | viability, T/C [7] 78.5% | viability, T/C [8] 58.4% | viability, T/C (second compound 0.316 µM, first compound 0.000316 µM) 62.3% | viability, T/C (second compound 0.316 µM, first compound 0.001 µM) 70.8% | viability, T/C (second compound 0.316 µM, first compound 0.00316 µM) 66.6% | viability, T/C (second compound 0.316 µM, first compound 0.01 µM) 57.6% | viability, T/C [9] 55.6% | viability, T/C [10] 50.6% | viability, T/C (second compound 1 µM, first compound 0.000316 µM) 58.5% | viability, T/C (second compound 1 µM, first compound 0.001 µM) 59.2% | viability, T/C (second compound 1 µM, first compound 0.00316 µM) 53.9% | viability, T/C (second compound 1 µM, first compound 0.01 µM) 61.7% | viability, T/C [11] 40.6% | viability, T/C [12] 32.4% | viability, T/C (second compound 3.16 µM, first compound 0.000316 µM) 42.7% | viability, T/C (second compound 3.16 µM, first compound 0.001 µM) 48.8% | viability, T/C (second compound 3.16 µM, first compound 0.00316 µM) 39% | viability, T/C (second compound 3.16 µM, first compound 0.01 µM) 44.7% | viability, T/C (second compound 3.16 µM, first compound 0.0316 µM) 40.4% | viability, T/C (second compound 3.16 µM, first compound 0.1 µM) 23.4% | viability, T/C (second compound 10 µM, first compound 0.000316 µM) 31.8% | viability, T/C (second compound 10 µM, first compound 0.001 µM) 38.5% | viability, T/C (second compound 10 µM, first compound 0.00316 µM) 33.6% | viability, T/C (second compound 10 µM, first compound 0.01 µM) 26.5% | viability, T/C (second compound 10 µM, first compound 0.0316 µM) 21.9% | viability, T/C (second compound 10 µM, first compound 0.1 µM) 21.6%
< 0.000316 µM: IC50 (curve of first compound, second compound 3.16 µM) | IC50 (curve of first compound, second compound 10 µM)
> 0.1 µM: IC50 [1] | IC50 [2] | IC50 [3]

CCCS(=O)(=O)Nc1ccc(F)c(C(=O)c2c[nH]c3ncc(-c4ccc(Cl)cc4)cc23)c1F + CC(Nc1ccc2c(c1)OCCn1cc(N3C(=O)OCC3C(F)F)nc1-2)C(N)=O
inactive: viability, T/C (second compound 0.00316 µM, first compound 0.0316 µM) 98% | viability, T/C (second compound 0.00316 µM, first compound 0.1 µM) 90.1% | viability, T/C (second compound 0.00316 µM, first compound 0.316 µM) 102% | viability, T/C (second compound 0.00316 µM, first compound 1 µM) 103% | viability, T/C (second compound 0.00316 µM, first compound 3.16 µM) 84.1% | viability, T/C (second compound 0.01 µM, first compound 0.0316 µM) 80.5% | viability, T/C (second compound 0.01 µM, first compound 0.1 µM) 88.5% | viability, T/C (second compound 0.01 µM, first compound 0.316 µM) 97.6% | viability, T/C (second compound 0.01 µM, first compound 1 µM) 100% | viability, T/C (second compound 0.01 µM, first compound 3.16 µM) 92.3% | viability, T/C [5] 76.3% | viability, T/C [6] 90% | viability, T/C (second compound 0.0316 µM, first compound 0.316 µM) 87% | viability, T/C (second compound 0.0316 µM, first compound 1 µM) 91.2% | viability, T/C (second compound 0.0316 µM, first compound 3.16 µM) 66.9% | viability, T/C [7] 71.9% | viability, T/C [8] 77.4% | viability, T/C (second compound 0.1 µM, first compound 0.316 µM) 69.1% | viability, T/C (second compound 0.1 µM, first compound 1 µM) 66.4% | viability, T/C (second compound 0.1 µM, first compound 3.16 µM) 54.5% | viability, T/C [9] 64.4% | viability, T/C [10] 67.4% | viability, T/C (second compound 0.316 µM, first compound 0.316 µM) 65.8% | viability, T/C (second compound 0.316 µM, first compound 1 µM) 48.9% | viability, T/C (second compound 0.316 µM, first compound 3.16 µM) 59.7% | viability, T/C [11] 49.1% | viability, T/C [12] 48.2% | viability, T/C (second compound 1 µM, first compound 0.316 µM) 46% | viability, T/C (second compound 1 µM, first compound 1 µM) 46.2% | viability, T/C (second compound 1 µM, first compound 3.16 µM) 41.3%
active: viability, T/C (second compound 0.00316 µM, first compound 10 µM) 5.37% | viability, T/C (second compound 0.01 µM, first compound 10 µM) 4.83% | viability, T/C (second compound 0.0316 µM, first compound 10 µM) 3.26% | viability, T/C (second compound 0.1 µM, first compound 10 µM) 4.8% | viability, T/C (second compound 0.316 µM, first compound 10 µM) 4.86% | viability, T/C (second compound 1 µM, first compound 10 µM) 5.27%
< 0.0316 µM: IC50 [4]
3.43 µM: IC50 [2]
3.84 µM: IC50 [3]
5.21 µM: IC50 (curve of first compound, second compound 0.00316 µM)
4.3 µM: IC50 [1]
5.49 µM: IC50 (curve of first compound, second compound 0.01 µM)

CC(=O)c1c(C)c2cnc(Nc3ccc(N4CCNCC4)cn3)nc2n(C2CCCC2)c1=O
> 0.1 µM: IC50 (curve of compound)
inactive: viability, T/C (compound 0.000316 µM) 95.4% [middle of 4 runs] | viability, T/C (compound 0.001 µM) 95.7% [middle of 4 runs] | viability, T/C (compound 0.00316 µM) 93.9% and 100% (2×) and 83.1% | viability, T/C (compound 0.01 µM) 97.5% [middle of 4 runs] | viability, T/C (compound 0.0316 µM) 87.3% [middle of 4 runs] | viability, T/C (compound 0.1 µM) 95.2% [middle of 4 runs]
